Laboratory results taken from ChEMBL document CHEMBL6127094, “Discovery of non-antiproliferative selective estrogen receptor degraders (SERDs) based on scaffold optimization of elacestrant” (Eur J Med Chem, 2024).
Activity calls are given as the source filed them. No cut-off for these calls is given here.

Experiments:
MCF7 [1] = test: Antiproliferative activity against human MCF7 cells assessed as reduction in cell viability at 5 to 100 uM incubated for 120 hrs by MTT assay relative to fulvestrant/elacestrant; assay type: functional, cell-based; conditions: dose 5-100 µM
[2] = target: T1, Estrogen receptor (Homo sapiens) (UniProt P03372); test: Induction of selective estrogen receptor degradation (SERD) in human MCF7 cells assessed as decrease in CCND1 mRNA expression level at 1 uM incubated for 24 hrs by RT-qPCR analysis; assay type: cell-based
T1 sequence (whole entry): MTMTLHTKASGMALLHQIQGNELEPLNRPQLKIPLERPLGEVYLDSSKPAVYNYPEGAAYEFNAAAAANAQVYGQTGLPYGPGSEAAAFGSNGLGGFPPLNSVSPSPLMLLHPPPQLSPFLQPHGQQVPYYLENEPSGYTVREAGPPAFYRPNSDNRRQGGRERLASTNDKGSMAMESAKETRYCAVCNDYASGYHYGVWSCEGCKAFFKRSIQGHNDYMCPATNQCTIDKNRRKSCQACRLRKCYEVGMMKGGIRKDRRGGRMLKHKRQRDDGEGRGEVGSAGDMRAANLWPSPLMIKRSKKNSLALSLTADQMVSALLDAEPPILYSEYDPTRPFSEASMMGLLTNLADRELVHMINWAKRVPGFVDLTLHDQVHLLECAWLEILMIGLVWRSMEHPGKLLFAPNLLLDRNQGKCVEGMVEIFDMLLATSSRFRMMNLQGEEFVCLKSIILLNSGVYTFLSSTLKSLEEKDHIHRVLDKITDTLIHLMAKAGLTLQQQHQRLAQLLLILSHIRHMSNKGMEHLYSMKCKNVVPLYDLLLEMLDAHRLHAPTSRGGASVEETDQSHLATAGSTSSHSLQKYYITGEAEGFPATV

[3] = target: T1, Estrogen receptor (Homo sapiens); test: Induction of selective estrogen receptor degradation (SERD) in human MCF7 cells at 5 uM incubated for 24 hrs by Western blot analysis; assay type: cell-based
T47D = test: Antiproliferative activity against human T47D cells assessed as reduction in cell viability at 1 to 10 uM incubated for 120 hrs by MTT assay; assay type: functional, cell-based; conditions: dose 1-10 µM
[4] = target: T1, Estrogen receptor (Homo sapiens); test: Induction of selective estrogen receptor degradation (SERD) in human MCF7 cells assessed as decrease in TFF1 mRNA expression level at 1 uM incubated for 24 hrs by RT-qPCR analysis; assay type: cell-based
[5] = target: T1, Estrogen receptor (Homo sapiens); test: Induction of selective estrogen receptor degradation (SERD) in human MCF7 cells assessed as decrease in TFF1 mRNA expression level at 1 to 10 uM incubated for 24 hrs in presence of E2 (estrogen) by RT-qPCR analysis; assay type: cell-based; conditions: dose 1-10 µM
[6] = target: T1, Estrogen receptor (Homo sapiens); test: Induction of selective estrogen receptor degradation (SERD) in human MCF7 cells assessed as decrease in CCND1 mRNA expression level at 1 to 10 uM incubated for 24 hrs in presence of E2 (estrogen) by RT-qPCR analysis; assay type: cell-based; conditions: dose 1-10 µM
MCF7 [7] = test: Inhibition of ERE signaling in human MCF7 cells transfected with 3X ERE TATA luciferase plasmid assessed as estrogen response element transcription at 10 uM incubated for 24 hrs by luminescence based analysis relative to elacestrant; assay type: functional, cell-based
[8] = target: T1, Estrogen receptor (Homo sapiens); test: Induction of selective estrogen receptor degradation (SERD) in human T47D cells at 5 uM incubated for 24 hrs by Western blot analysis; assay type: cell-based
[9] = target: T1, Estrogen receptor (Homo sapiens); test: Induction of selective estrogen receptor degradation (SERD) in human MCF7 cells assessed as decrease in TFF1 mRNA expression level incubated for 24 hrs in presence of E2 (estrogen) by RT-qPCR analysis; assay type: cell-based
[10] = target: T1, Estrogen receptor (Homo sapiens); test: Induction of selective estrogen receptor degradation (SERD) in human MCF7 cells assessed as decrease in GREB1 mRNA expression level incubated for 24 hrs in presence of E2 (estrogen) by RT-qPCR analysis; assay type: cell-based

Structure (SMILES): CCN(C(=O)c1ccc(OCCN2CCCC2)cc1)c1ccccc1N1CCc2cc(O)ccc2C1
- Activity (MCF7 [1]): inactive

Structure (SMILES): CCN(Cc1ccc(OCCN2CCCC2)cc1)c1ccccc1N1CCc2cc(O)ccc2C1
- Activity (MCF7 [1]): inactive

Structure (SMILES): CCN(Cc1ccc(OCCN2CCCC2)cc1)c1cc(F)ccc1N1CCc2cc(O)ccc2C1
- Activity (MCF7 [1]): inactive

Structure (SMILES): CCN(Cc1ccc(/C=C/C(=O)O)cc1)c1cc(C)ccc1N1CCc2cc(O)ccc2C1
- Activity (MCF7 [1]): inactive

Structure (SMILES): CCN(C(=O)c1ccc(OCCN2CCCC2)cc1)c1cc(C)ccc1N1CCc2cc(O)ccc2C1
- Activity (MCF7 [1]): inactive

Structure (SMILES): CCN(Cc1ccc(OCCN2CCCCCC2)cc1)c1ccccc1N1CCc2cc(O)ccc2C1
- Activity (MCF7 [1]): inactive

Structure (SMILES): CCN(Cc1ccc(OCCN2CCCCCC2)cc1)c1cc(F)ccc1N1CCc2cc(O)ccc2C1
- Activity (MCF7 [1]): inactive

Structure (SMILES): CCN(Cc1ccc(OCCN2CCCC2)cc1)c1cc(C(F)(F)F)ccc1N1CCc2cc(O)ccc2C1
- Activity (MCF7 [1]): inactive

Structure (SMILES): CCN(Cc1ccc(OCCN2CCCCCC2)cc1)c1cc(C(F)(F)F)ccc1N1CCc2cc(O)ccc2C1
- Activity (MCF7 [1]): inactive

Structure (SMILES): CCN(Cc1ccc(/C=C/C(=O)O)cc1)c1cc(C(F)(F)F)ccc1N1CCc2cc(O)ccc2C1
- Activity [2]: Active
- Activity [3]: Active
- Activity (T47D): inactive
- Activity [4]: Active
- Activity [5]: Active
- Activity [6]: Active
- inhibition (MCF7 [7]): inactive
- Activity [8]: Active
- Activity (MCF7 [1]): inactive

Structure (SMILES): CCN(C(=O)c1ccc(OCCN2CCCC2)cc1)c1cc(F)ccc1N1CCc2cc(O)ccc2C1
- Activity (MCF7 [1]): inactive

Structure (SMILES): CCN(Cc1ccc(OCCN2CCCC2)cc1)c1cc(C)ccc1N1CCc2cc(O)ccc2C1
- Activity (MCF7 [1]): inactive

Structure (SMILES): CCN(C(=O)c1ccc(OCCN2CCCC2)cc1)c1cc(C(F)(F)F)ccc1N1CCc2cc(O)ccc2C1
- Activity (MCF7 [1]): inactive

Structure (SMILES): CCN(Cc1ccc(OCCN2CCCCCC2)cc1)c1cc(C)ccc1N1CCc2cc(O)ccc2C1
- Activity (MCF7 [1]): inactive

Structure (SMILES): CCNCCc1ccc(CN(CC)c2cc(OC)ccc2[C@@H]2CCc3cc(O)ccc3C2)cc1
- Activity [9]: Active
- Activity [10]: Active

Structure (SMILES): CCN(Cc1ccc(/C=C/C(=O)O)cc1)c1cc(F)ccc1N1CCc2cc(O)ccc2C1
- Activity (MCF7 [1]): inactive

Structure (SMILES): CCN(Cc1ccc(/C=C/C(=O)O)cc1)c1ccccc1N1CCc2cc(O)ccc2C1
- Activity (MCF7 [1]): inactive
